Source: US10183914B2 (BAYER CROPSCIENCE AKTIENGESELLSCHAFT, priority 2014, dated 2019)

How the values were obtained:
[1] = logp (HCOOH), physicochemical characterization
Oryza sativa [2] = test: Pre-emergence herbicidal effect and crop plant compatibility; assay type: in vivo; settings: 3 weeks
Procedure, shortened: (§1)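 Pre-emergence greenhouse test: seeds sown in sandy loam, compounds (WP or EC) sprayed onto covering soil as aqueous suspension/emulsion at 600 to 800 L/ha water with 0.2% wetting agent. Damage scored visually after 3 weeks versus untreated controls as percent efficacy (100% = plants dead).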

Zea mays [3] = test: as above; assay type: in vivo; settings: 80 g/ha, 3 weeks
Procedure, shortened: as §1

Abutilon theophrasti = test: Pre-emergence herbicidal effect; assay type: in vivo; settings: 3 weeks
Procedure, shortened: as §1

Alopecurus myosuroides [4] = test: Pre-emergence herbicidal effect; assay type: in vivo; settings: 320 g/ha, 3 weeks
Procedure, shortened: as §1

Amaranthus retroflexus = test: Pre-emergence herbicidal effect; assay type: in vivo; settings: 3 weeks
Procedure, shortened: as §1

Avena fatua [5] = test: Pre-emergence herbicidal effect; assay type: in vivo; settings: 320 g/ha, 3 weeks
Procedure, shortened: as §1

Echinochloa crus-galli [6] = test: Pre-emergence herbicidal effect; assay type: in vivo; settings: 3 weeks
Procedure, shortened: as §1

Ipomoea purpurea [7] = test: Pre-emergence herbicidal effect; assay type: in vivo; settings: 320 g/ha, 3 weeks
Procedure, shortened: as §1

Lolium multiflorum [8] = test: Pre-emergence herbicidal effect; assay type: in vivo; settings: 3 weeks
Procedure, shortened: as §1

Matricaria inodora = test: Pre-emergence herbicidal effect; assay type: in vivo; settings: 3 weeks
Procedure, shortened: as §1

Polygonum convolvulus = test: Pre-emergence herbicidal effect; assay type: in vivo; settings: 3 weeks
Procedure, shortened: as §1

Setaria viridis [9] = test: Pre-emergence herbicidal effect; assay type: in vivo; settings: 3 weeks
Procedure, shortened: as §1

Stellaria media = test: Pre-emergence herbicidal effect; assay type: in vivo; settings: 3 weeks
Procedure, shortened: as §1

Veronica persica = test: Pre-emergence herbicidal effect; assay type: in vivo; settings: 3 weeks
Procedure, shortened: as §1

Viola tricolor = test: Pre-emergence herbicidal effect; assay type: in vivo; settings: 3 weeks
Procedure, shortened: as §1

Oryza sativa [10] = test: Post-emergence herbicidal effect and crop plant compatibility; assay type: in vivo; settings: visual scoring after about 3 weeks
Procedure, shortened: (§2)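 After growing for 2 to 3 weeks from seed in sandy loam, plants at the one-leaf stage get an aqueous spray of the formulated compound containing 0.2% wetting agent. Around three weeks later each pot is assessed by eye, expressed as percent effect compared with untreated plants.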

[11] = test system: Triticum aestivum (spring); test: as above; assay type: in vivo; settings: visual scoring after about 3 weeks
Procedure, shortened: as §2

Zea mays [12] = test: as above; assay type: in vivo; settings: visual scoring after about 3 weeks
Procedure, shortened: as §2

Alopecurus myosuroides [13] = test: Post-emergence herbicidal effect; assay type: in vivo; settings: 320 g/ha, visual scoring after about 3 weeks
Procedure, shortened: as §2

Avena fatua [14] = test: Post-emergence herbicidal effect; assay type: in vivo; settings: 320 g/ha, visual scoring after about 3 weeks
Procedure, shortened: as §2

Echinochloa crus-galli [15] = test: Post-emergence herbicidal effect; assay type: in vivo; settings: visual scoring after about 3 weeks
Procedure, shortened: as §2

Ipomoea purpurea [16] = test: Post-emergence herbicidal effect; assay type: in vivo; settings: scoring after about 3 weeks
Procedure, shortened: as §2

Lolium multiflorum [17] = test: Post-emergence herbicidal effect; assay type: in vivo; settings: 320 g/ha, visual scoring after about 3 weeks
Procedure, shortened: as §2

Setaria viridis [18] = test: Post-emergence herbicidal effect; assay type: in vivo; settings: 320 g/ha (dose by row order of upper half), scoring after about 3 weeks
Procedure, shortened: as §2

[19] = test system: Triticum aestivum (spring); test: Pre-emergence herbicidal effect and crop plant compatibility; assay type: in vivo; settings: 80 g/ha, 3 weeks
Procedure, shortened: as §1

Brassica napus = test: Post-emergence herbicidal effect and crop plant compatibility; assay type: in vivo; settings: 80 g/ha, visual scoring after about 3 weeks
Procedure, shortened: as §2

## Cc1ccc2c(c1)[C@H](Nc1ncc3c(n1)CC(C)(C)CC3=O)[C@@H](C)C2 [2.45]
[1]
  logp (HCOOH): oily; logp (HCOOH): 4.23; 1H-NMR (CDCl3, 400 MHZ, δ in ppm): 1.10 (m, 6H,
Oryza sativa [2]; 80 g/ha
  ORYSA herbicidal activity in percent: 0%
Oryza sativa [2]; 320 g/ha
  ORYSA herbicidal activity in percent: 10%
Zea mays [3]
  ZEAMX herbicidal activity in percent: 10%
Abutilon theophrasti; 80 g/ha
  ABUTH herbicidal activity in percent: 80%
Abutilon theophrasti; 320 g/ha
  ABUTH herbicidal activity in percent: 80%
Alopecurus myosuroides [4]
  ALOMY herbicidal activity in percent: 90%
Amaranthus retroflexus; 80 g/ha
  AMARE herbicidal activity in percent: 100%
Amaranthus retroflexus; 320 g/ha
  AMARE herbicidal activity in percent: 100%
Avena fatua [5]
  AVEFA herbicidal activity in percent: 80%
Echinochloa crus-galli [6]; 80 g/ha
  ECHCG herbicidal activity in percent: 100%
Echinochloa crus-galli [6]; 320 g/ha
  ECHCG herbicidal activity in percent: 100%
Ipomoea purpurea [7]
  PHBPU herbicidal activity in percent: 90%
Lolium multiflorum [8]; 80 g/ha
  LOLMU herbicidal activity in percent: 80%
Lolium multiflorum [8]; 320 g/ha
  LOLMU herbicidal activity in percent: 100%
Matricaria inodora; 80 g/ha
  MATIN herbicidal activity in percent: 90%
Matricaria inodora; 320 g/ha
  MATIN herbicidal activity in percent: 90%
Polygonum convolvulus; 80 g/ha
  POLCO herbicidal activity in percent: 100%
Polygonum convolvulus; 320 g/ha
  POLCO herbicidal activity in percent: 100%
Setaria viridis [9]; 80 g/ha
  SETVI herbicidal activity in percent: 100%
Setaria viridis [9]; 320 g/ha
  SETVI herbicidal activity in percent: 100%
Stellaria media; 80 g/ha
  STEME herbicidal activity in percent: 100%
Stellaria media; 320 g/ha
  STEME herbicidal activity in percent: 100%
Veronica persica; 80 g/ha
  VERPE herbicidal activity in percent: 100%
Veronica persica; 320 g/ha
  VERPE herbicidal activity in percent: 100%
Viola tricolor; 80 g/ha
  VIOTR herbicidal activity in percent: 100%
Viola tricolor; 320 g/ha
  VIOTR herbicidal activity in percent: 100%
Oryza sativa [10]; 80 g/ha
  post-emergence efficacy ORYSA: 20%
[11]; 80 g/ha
  post-emergence efficacy TRZAS: 10%
[11]; 320 g/ha
  post-emergence efficacy TRZAS: 10%
Zea mays [12]; 80 g/ha
  post-emergence efficacy ZEAMX: 0%
Zea mays [12]; 320 g/ha
  post-emergence efficacy ZEAMX: 0%
Alopecurus myosuroides [13]
  post-emergence efficacy ALOMY: 80%
Avena fatua [14]
  post-emergence efficacy AVEFA: 80%
Echinochloa crus-galli [15]; 80 g/ha
  post-emergence efficacy ECHCG: 100%
Echinochloa crus-galli [15]; 320 g/ha
  post-emergence efficacy ECHCG: 100%
Ipomoea purpurea [16]; 80 g/ha (dose by row order of upper half)
  post-emergence efficacy PHBPU: 100%
Ipomoea purpurea [16]; 320 g/ha (dose by row order of upper half)
  post-emergence efficacy PHBPU: 100%
Lolium multiflorum [17]
  post-emergence efficacy LOLMU: 100%
Setaria viridis [18]
  post-emergence efficacy SETVI: 90%

## CC1CC(=O)c2cnc(N[C@@H]3CCCc4ccccc43)nc2C1 (stereo partly drawn) [2.26]
[1]
  logp (HCOOH): oily; logp (HCOOH): 3.45; 1H-NMR (CDCl3, 400 MHZ, δ in ppm): 1.15 (m, 3H, CH3);
[19]
  TRZAS herbicidal activity in percent: 0%
Zea mays [3]
  ZEAMX herbicidal activity in percent: 0%
Alopecurus myosuroides [4]
  ALOMY herbicidal activity in percent: 90%
Amaranthus retroflexus; 80 g/ha
  AMARE herbicidal activity in percent: 100%
Amaranthus retroflexus; 320 g/ha
  AMARE herbicidal activity in percent: 100%
Avena fatua [5]
  AVEFA herbicidal activity in percent: 90%
Echinochloa crus-galli [6]; 80 g/ha
  ECHCG herbicidal activity in percent: 80%
Echinochloa crus-galli [6]; 320 g/ha
  ECHCG herbicidal activity in percent: 100%
Lolium multiflorum [8]; 320 g/ha
  LOLMU herbicidal activity in percent: 100%
Matricaria inodora; 320 g/ha
  MATIN herbicidal activity in percent: 100%
Polygonum convolvulus; 320 g/ha
  POLCO herbicidal activity in percent: 100%
Setaria viridis [9]; 320 g/ha
  SETVI herbicidal activity in percent: 90%
Stellaria media; 80 g/ha
  STEME herbicidal activity in percent: 100%
Stellaria media; 320 g/ha
  STEME herbicidal activity in percent: 100%
Veronica persica; 80 g/ha
  VERPE herbicidal activity in percent: 80%
Veronica persica; 320 g/ha
  VERPE herbicidal activity in percent: 100%
Viola tricolor; 80 g/ha
  VIOTR herbicidal activity in percent: 90%
Viola tricolor; 320 g/ha
  VIOTR herbicidal activity in percent: 100%
Brassica napus
  post-emergence efficacy BRSNW: 20%
Oryza sativa [10]; 80 g/ha
  post-emergence efficacy ORYSA: 0%
Oryza sativa [10]; 320 g/ha
  post-emergence efficacy ORYSA: 0%
[11]; 80 g/ha
  post-emergence efficacy TRZAS: 0%
[11]; 320 g/ha
  post-emergence efficacy TRZAS: 0%
Zea mays [12]; 80 g/ha
  post-emergence efficacy ZEAMX: 0%
Zea mays [12]; 320 g/ha
  post-emergence efficacy ZEAMX: 0%
